Entries after “also recorded” stand apart in the source; their conditions may differ. Peptide text beside a SMILES is read from it.
Legend:
IL-23R = molecular target: T1, IL-23R (Mus musculus, UniProt Q8K4B4); experiment: IL-23-induced STAT3 phosphorylation in freshly isolated splenocytes (Alpha Screen SureFire p-STAT-3); assay type: cell-based; settings: freshly isolated splenocytes; listed as APG-2309
T1 construct: Spleens were sterilely removed from mice, sliced, and mashed in the presence of PBS buffer; from tissue; host or cells: mouse spleen: freshly isolated splenocytes, and CD4+ cells differentiated into TH17 cells
T1 sequence (Q8K4B4 24-644): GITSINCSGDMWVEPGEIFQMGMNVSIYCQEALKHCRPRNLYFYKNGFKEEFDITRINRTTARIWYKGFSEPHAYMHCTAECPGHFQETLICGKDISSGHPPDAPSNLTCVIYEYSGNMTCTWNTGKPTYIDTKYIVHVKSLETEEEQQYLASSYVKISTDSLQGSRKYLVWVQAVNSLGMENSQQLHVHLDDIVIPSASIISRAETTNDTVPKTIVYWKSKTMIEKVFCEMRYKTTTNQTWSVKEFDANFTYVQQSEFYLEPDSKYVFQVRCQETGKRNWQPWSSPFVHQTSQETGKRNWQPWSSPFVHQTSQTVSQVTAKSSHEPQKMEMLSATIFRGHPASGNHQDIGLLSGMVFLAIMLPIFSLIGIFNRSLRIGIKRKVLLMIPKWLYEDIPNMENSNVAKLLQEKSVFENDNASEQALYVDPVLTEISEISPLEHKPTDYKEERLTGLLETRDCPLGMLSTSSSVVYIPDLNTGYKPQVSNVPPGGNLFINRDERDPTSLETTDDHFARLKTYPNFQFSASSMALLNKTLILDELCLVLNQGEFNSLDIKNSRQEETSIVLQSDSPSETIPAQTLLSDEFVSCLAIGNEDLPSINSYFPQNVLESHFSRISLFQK
Protocol: Spleens were sterilely removed from mice, sliced, and mashed in the presence of PBS buffer, 2% fetal bovine serum, and 1 mM EDTA. Tissue was allowed to pass through a number 26 syringe and was filtered through a 70 μm mesh nylon strainer. Cells were cultured with non-essential amino acids, 2 μg/ml of anti-CD3, and 20 μg/ml of anti-CD-28 as survival and differentiation factors.
Splenocytes or TH17 cells were distributed in 384-well plates (Optiplate; Perkin Elmer) (100,000 cells/well). Cells were pre-incubated for 30 minutes with different concentrations of peptide APG-2305 or APG-2309 and incubated with 25 ng/ml of IL-23 (R&D systems) for 10 minutes. STAT3 phosphorylation was determined with the kit Alpha Screen SureFire p-STAT-3 assay from Perkin Elmer according to manufacturer's instructions. Briefly, after incubation with IL-23, cells were lysed and contacted with (1) protein A acceptor conjugated beads coated with anti-p-STAT-3 (Tyr705) and (2) streptavidin-coated donor beads. The resulting signal was measured with a Perkin Elmer Wallac En vision 2104 Multilabel reader. Graphs were generated using GraphPrism 4 software.
The effect of peptide APG-2305 and APG-2309 derivatives on IL-23-induced STAT3 phosphorylation was determined using CD-1 mice freshly isolated splenocytes and the Alpha Screen p-STAT3 assay (see above materials and methods) (FIGS. 6 and 7). […] As described herein, based on the efficacy of derivatives, we have identified regions in APG-2305 and APG-2309 peptides that are important for their ability to affect IL-23R activity.

[1] = test system: PMA-induced dermatitis (ear); experiment: PMA-induced dermatitis, intraperitoneal injection; assay type: in vivo, CD-1 mice; settings: intraperitoneal injection (0.1-1 mg/kg/day)
Protocol: FIG. 12 is a series of images and graphs showing the effect of intraperitoneal injection of the 2309 peptide on PMA-induced dermatitis. On day 1, 10 μl of a 0.01% solution of PMA (v/v in acetone) was applied on the external and internal surfaces of the left ear of CD-1 mice (images in left column). Twenty-four hours later, different doses of the 2309 peptide were injected intraperitoneally (0.1 mg/kg/day; 0.5 mg/kg/day; 1 mg/kg/day bid; n=4 for each group treatment). Animals were sacrificed on day 4 (6 hours after the last 2309 injection). The weight (right column, top graph) and thickness (right column, bottom graph) of all ear punches were then determined and the peptide-treated ears with PMA were compared to PMA-only ears.

MOG-induced EAE = experiment: Experimental Autoimmune Encephalitis (EAE) model; assay type: in vivo, C57/BL6 mice; settings: for clinical signs of EAE: intraperitoneal
IL-23 receptor = molecular target: T2, IL-23 receptor (Homo sapiens, UniProt Q5VWK5); experiment: IL-23-induced STAT3 phosphorylation in PMA-activated HL-60 monocytes (Western blot); assay type: cell-based; design: endogenous in cells; settings: PMA-activated HL-60 human monocytes; peptide 1 μM, 30 min pre-incubation; IL-23 10 ng/ml, 15 min
T2 sequence (Q5VWK5 24-629): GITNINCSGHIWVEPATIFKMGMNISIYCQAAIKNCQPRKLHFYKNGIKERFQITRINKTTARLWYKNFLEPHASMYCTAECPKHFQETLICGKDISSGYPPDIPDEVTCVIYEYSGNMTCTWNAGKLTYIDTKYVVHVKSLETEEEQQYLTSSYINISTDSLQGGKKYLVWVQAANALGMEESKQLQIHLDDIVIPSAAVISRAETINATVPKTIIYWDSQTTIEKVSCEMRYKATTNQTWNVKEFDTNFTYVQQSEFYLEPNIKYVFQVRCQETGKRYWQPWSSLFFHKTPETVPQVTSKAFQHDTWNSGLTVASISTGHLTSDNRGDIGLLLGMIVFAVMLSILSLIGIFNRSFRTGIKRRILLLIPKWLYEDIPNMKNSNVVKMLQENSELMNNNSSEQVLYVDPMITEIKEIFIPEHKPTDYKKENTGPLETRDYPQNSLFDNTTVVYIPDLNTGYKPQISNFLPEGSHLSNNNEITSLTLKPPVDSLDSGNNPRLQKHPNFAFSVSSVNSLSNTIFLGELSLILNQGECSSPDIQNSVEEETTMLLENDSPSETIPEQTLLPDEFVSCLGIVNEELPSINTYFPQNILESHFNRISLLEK
Protocol: FIG. 2 is a graph showing the results of efficacy screening of peptides designed from the IL-23 receptor. HL-60 human monocytes were pre-incubated for 30 minutes with the particular peptides (1 μM) and stimulated for 15 minutes with IL-23 (10 ng/ml). Western Blot analysis of phosphorylated-STAT3 and total STAT3 was performed on cell lysates. Immunoblot densitometry was measured using ImagePro4+ software. […] FIGS. 3A and 3B are graphs showing inhibition of IL-23-induced STAT3 phosphorylation and TNFα generation. […] Western Blot analysis was performed on cell lysates, and immunoblot densitometry was measured using ImagePro4+ software. […] TNFα production was quantified by ELISA 24 hours after stimulation with IL-23 using the Quantikine ELISA Kit (R&D systems). […] D-peptides 2303, 2305, 2307 and 2309 (1 μM) inhibit IL-23-induced STAT3 phosphorylation in phorbol 12-myristate 13-acetate (PMA)-activated human monocytes (HL-60) (FIG. 2).

[2] = three times a day (3 mg/kg/day), Sudan black stain, listed as APG-2309

CSCC[C@@H](N)C(=O)N[C@H](CCC(=O)O)C(=O)N[C@H](CCC(=O)O)C(=O)N[C@H](CO)C(=O)N[C@H](CCCCN)C(=O)N[C@H](CCC(N)=O)C(=O)N[C@H](CC(C)C)C(=O)N[C@H](CCC(N)=O)C(=O)N[C@H](CC(C)C)C(=O)O [Peptide 2309, MEESKQLQL] (HELM PEPTIDE1{[dM].[dE].[dE].[dS].[dK].[dQ].[dL].[dQ].[dL]}$$$$V2.0; N-terminus and C-terminus assumed)
effect on IL-23-induced STAT3 phosphorylation (IL-23R): inhibit; also recorded: showed efficacy | redness and ear weight [1]: able to treat PMA-induced dermatitis as evidenced by a decrease in redness and ear weight | EAE-induced demyelination of the cerebellum (MOG-induced EAE; [2]): protects against EAE-induced demyelination of the cerebellum; also recorded: totally prevents | EAE-induced demyelination of the spinal cord (MOG-induced EAE; [2]): protects against EAE-induced demyelination of the spinal cord; also recorded: totally prevents | clinical signs of EAE (MOG-induced EAE; treatment three times a day): completely abolished the induction of the disease symptoms | clinical signs of EAE (MOG-induced EAE; twice a day at 2 mg/kg/day): retarded the appearance of the clinical signs of EAE | effect on IL-23-induced STAT3 phosphorylation (IL-23 receptor): demonstrable efficacy; also recorded: inhibit; also recorded: remained capable of inhibiting

From patent US20100190710A1, “IL-23 RECEPTOR ANTAGONISTS AND USES THEREOF” (Valorisation HSJ, Societe en Commandite, priority 2007, published 2010)
